Measurements published in patent publication US11083735B2, “Methods for treating sleep disorders, sleep disturbances, and related symptoms using aminosterol compositions” (Enterin, Inc., priority 2017, dated 2021).

Tests used:
[1] = Pharmacokinetics of orally administered squalamine (ENT-01) in Stage 1; assay type: in vivo, human; conditions: for AUC0-8 hr / AUC0-16 hr / Tmax (Median Value) / Cmax: Stage 1, oral; for Cmax: squalamine ion, mean
Experimental: Pharmakokinetics: PK data were collected on the 10 patients enrolled in Stage 1 and 10 patients enrolled in Stage 2 to determine the extent of systemic absorption. In Stage 1, PK data were obtained at each visit, pre-medication, at 1, 2, 4, 8 and 24 hours (Table 14). In Stage 2, PK was measured on days 1 and 6 of the randomization period pre-medication, at 1, 2, 4 and 8 hours (Table 15). […] Hao et al. 2003). The mean Cmax, Tmax and T1/2 and AUC of the squalamine ion following squalamine (ENT-01) oral dosing for Stage 1 patients. […] The mean Cmax, Tmax and T1/2 and AUC of the squalamine ion following squalamine (ENT-01) oral dosing for Stage 2 patients. The PK analyses are only approximate, as the lower limit of the validated concentration range was 0.5 ng/ml.

[2] = tested on: patients with PD and constipation; experiment: Phase 2 trial Stage 1: adverse events
Experimental: In Stage 1, ten (10) PD patients received a single escalating dose of squalamine (ENT-01) every 3-7 days beginning at 25 mg and continuing up to 200 mg or the limit of tolerability, followed by 2-weeks of wash-out. Duration of this part of the trial was 22-57 days. The 10 subjects in the sentinel group were assigned to Cohort 1 and participated in 8 single dosing periods. Tolerability limits included diarrhea or vomiting.
Each dose period was staggered, so that subjects 1-2 were administered a single dose of the drug at the lowest dose of 25 mg. Once 24 hours have elapsed, and provided there are no safety concerns, the patient was sent home and brought back on day 4-8 for the next dose. During the days the subjects are home, they completed the daily diaries and e-mailed them to the study coordinators. Subjects 3-10 were dosed after the first 2 subjects have been observed for 72 hours, i.e. on Day 4. Subjects 1-2 were also brought back on Day 4-8 and given a single dose of 50 mg. Once another 24 hours have elapsed and provided there are no safety concerns, the patients were all sent home and instructed to return on Day 7 for the next dosing level. This single dosing regimen was continued until each subject was given a single dose of 200 mg or has reached a dose limiting toxicity (DLT). DLT was the dose which induces repeated vomiting, diarrhea, abdominal pain or symptomatic postural hypotension within 24 hours of dosing.
Adverse events were coded using the current version of MedDRA. Severity of AEs were assessed by investigators according to CTCAE (v4.03): Grade 1 is labeled as Mild, Grade 2 as Moderate, and Grade 3 and above as Severe. […] The number (percentage) of subjects who experienced an AE during escalation and fixed dosing periods were summarized by dose level and overall for each stage. The denominator for calculating the percentages were based on the number of subjects ever exposed to each dose and overall.

[3] = Stage 1, 10 dosed, Unrelated to ENT-01

## CC(C)[C@@H](CC[C@@H](C)[C@H]1CC[C@H]2[C@@H]3[C@H](O)C[C@H]4C[C@@H](NCCCNCCCCN)CC[C@]4(C)[C@H]3CC[C@]12C)OS(=O)(=O)O (single isomer, unassigned; ent-01) [ENT-01]
[1]; Stage 1, oral dosing up to 200 mg (114 mg/m^2), compared with prior phase 1 IV pharmacokinetic data
  approximate oral bioavailability: about 0.1%
[1]; dose 25 mg
  AUC0-8 hr: 10.8 ng·h/mL
  AUC0-16 hr: 19.6 ng·h/mL
  Tmax (Median Value): 1.0 h
  Cmax: 2.84 ng/mL
[1]; dose 50 mg
  AUC0-8 hr: 18.5 ng·h/mL
  AUC0-16 hr: 33.1 ng·h/mL
  Tmax (Median Value): 2.0 h
  Cmax: 3.73 ng/mL
[1]; dose 75 mg
  AUC0-8 hr: 18.4 ng·h/mL
  AUC0-16 hr: 29.8 ng·h/mL
  Tmax (Median Value): 2.0 h
  Cmax: 4.33 ng/mL
[1]; dose 100 mg
  AUC0-8 hr: 29.6 ng·h/mL
  AUC0-16 hr: 51.5 ng·h/mL
  Tmax (Median Value): 2.0 h
  Cmax: 6.18 ng/mL
[1]; dose 125 mg
  AUC0-8 hr: 43.1 ng·h/mL
  AUC0-16 hr: 77.7 ng·h/mL
  Tmax (Median Value): 2.0 h
  Cmax: 9.63 ng/mL
[1]; dose 150 mg
  AUC0-8 hr: 31.5 ng·h/mL
  AUC0-16 hr: 64.0 ng·h/mL
  Tmax (Median Value): 2.0 h
  Cmax: 6.27 ng/mL
[1]; dose 175 mg
  AUC0-8 hr: 49.7 ng·h/mL
  AUC0-16 hr: 91.2 ng·h/mL
  Tmax (Median Value): 2.0 h
  Cmax: 10.3 ng/mL
[1]; dose 200 mg
  AUC0-8 hr: 78.3 ng·h/mL
  AUC0-16 hr: 157 ng·h/mL
  Tmax (Median Value): 2.0 h
  Cmax: 15.1 ng/mL
[1]; estimated from PK of intravenously administered squalamine in prior clinical studies
  oral bio-availability: less than 0.3%
[2]; Stage 1
  AEs confined to the GI tract: 88%
[2]; Stage 1, 4/10
  Diarrhea, patients: 40%
  nausea, patients: 40%
[2]; Stage 1, 10 dosed
  Abdominal pain, Mild: 2(20) n, %
  Abdominal pain, Moderate: 3(30) n, %
  Blood in urine, Moderate: 0 n, %
  Diarrhea, Mild: 1(10) n, %
  Diarrhea, Moderate: 3(30) n, %
  Diarrhea, Severe: 0 n, %
  Difficulty falling asleep, Mild: 0 n, %
  Difficulty falling asleep, Moderate: 0 n, %
  Dizziness, Mild: 0 n, %
  Dizziness, Moderate: 0 n, %
  Flatulence, Mild: 2(20) n, %
  Flatulence, Moderate: 0 n, %
  Headache, Mild: 1(10) n, %
  Headache, Moderate: 0 n, %
  Increased urinary frequency, Mild: 0 n, %
  Increased urinary frequency, Moderate: 0 n, %
  Loss of appetite, Moderate: 0 n, %
  Lower GI bleed, Severe: 0 n, %
  Nausea, Mild: 4(40) n, %
  Nausea, Moderate: 0 n, %
  Skin lesions-rash, Mild: 0 n, %
  Skin lesions-rash, Moderate: 0 n, %
  Urinary retention, Mild: 0 n, %
  Urinary retention, Moderate: 0 n, %
  Vomiting, Mild: 1(10) n, %
  Vomiting, Moderate: 0 n, %
  Worsening acid reflux, Mild: 0 n, %
  Worsening acid reflux, Moderate: 0 n, %
  Worsening hemorrhoid, Mild: 0 n, %
  Worsening hemorrhoid, Moderate: 0 n, %
[2]; [3]
  Blood in urine, Mild: 1(10) n, %
  Loss of appetite, Mild: 1(10) n, %
[2]; Stage 1, dose 25 mg
  Common adverse events by dose: Diarrhea: 1
  Common adverse events by dose: Nausea: 0
  Common adverse events by dose: Vomiting: 0
[2]; Stage 1, dose 50 mg
  Common adverse events by dose: Diarrhea: 1
  Common adverse events by dose: Nausea: 0
  Common adverse events by dose: Vomiting: 0
[2]; Stage 1, dose 75 mg
  Common adverse events by dose: Diarrhea: 1
  Common adverse events by dose: Nausea: 0
  Common adverse events by dose: Vomiting: 0
[2]; Stage 1, dose 100 mg
  Common adverse events by dose: Diarrhea: 0
  Common adverse events by dose: Nausea: 1
  Common adverse events by dose: Vomiting: 1
[2]; Stage 1, dose 125 mg
  Common adverse events by dose: Diarrhea: 1
  Common adverse events by dose: Nausea: 2
  Common adverse events by dose: Vomiting: 1
[2]; Stage 1, dose 150 mg
  Common adverse events by dose: Diarrhea: 1
  Common adverse events by dose: Nausea: 0
  Common adverse events by dose: Vomiting: 0
[2]; Stage 1, dose 175 mg
  Common adverse events by dose: Diarrhea: 1
  Common adverse events by dose: Nausea: 1
  Common adverse events by dose: Vomiting: 0
[2]; Stage 1, dose 200 mg
  Common adverse events by dose: Diarrhea: 0
  Common adverse events by dose: Nausea: 2
  Common adverse events by dose: Vomiting: 0
